pIC50: −log10 of the molar value. Like-named read-outs stand apart in the source and are kept apart here.
Target: T1, human cardiac ion channel proteins hKir3.1/Kir3.4 (Homo sapiens, UniProt P48544+P48549)
T1 construct: expressed in transfected cells
T1 sequence (P48549 1-501): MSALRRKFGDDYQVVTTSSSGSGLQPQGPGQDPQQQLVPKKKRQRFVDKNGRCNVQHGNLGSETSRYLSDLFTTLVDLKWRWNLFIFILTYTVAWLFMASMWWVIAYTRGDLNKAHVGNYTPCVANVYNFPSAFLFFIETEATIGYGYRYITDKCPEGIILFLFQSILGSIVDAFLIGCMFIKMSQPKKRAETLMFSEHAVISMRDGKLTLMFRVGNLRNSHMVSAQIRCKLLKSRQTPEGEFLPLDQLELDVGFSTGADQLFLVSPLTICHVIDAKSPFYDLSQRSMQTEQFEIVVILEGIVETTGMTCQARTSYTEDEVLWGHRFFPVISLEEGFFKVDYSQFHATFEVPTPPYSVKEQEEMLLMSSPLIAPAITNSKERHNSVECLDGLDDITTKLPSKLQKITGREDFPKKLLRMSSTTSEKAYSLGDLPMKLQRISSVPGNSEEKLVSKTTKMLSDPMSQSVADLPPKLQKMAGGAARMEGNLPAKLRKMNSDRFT
T1 sequence (P48544 1-419): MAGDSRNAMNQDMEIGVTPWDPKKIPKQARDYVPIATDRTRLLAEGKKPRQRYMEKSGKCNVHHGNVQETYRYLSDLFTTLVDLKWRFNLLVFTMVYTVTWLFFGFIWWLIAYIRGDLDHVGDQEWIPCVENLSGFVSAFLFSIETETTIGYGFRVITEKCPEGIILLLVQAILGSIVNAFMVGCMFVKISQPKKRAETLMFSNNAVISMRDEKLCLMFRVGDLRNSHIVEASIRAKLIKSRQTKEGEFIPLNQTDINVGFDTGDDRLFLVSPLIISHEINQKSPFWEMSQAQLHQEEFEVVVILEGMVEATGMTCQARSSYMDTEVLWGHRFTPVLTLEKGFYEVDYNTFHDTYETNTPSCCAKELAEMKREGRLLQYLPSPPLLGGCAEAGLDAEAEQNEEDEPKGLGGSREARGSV
Assay: Atomic Absorption Screening (AAS) Rb efflux assay of hKir3.1/Kir3.4 block, carbachol/high K+ stimulated, 10-pt or 7-pt CR
Format: cell-based
Description: Human KCNJ3 encoding Kir3.1 (Genbank acc. No. NM_002239) was inserted between EcoRI and NotI in the pIRESneo3 vector (Clontech Laboratories, Inc. CA, USA). Human KCNJ5 encoding Kir3.4 (Genbank Acc. No. BC069482) was inserted between EcoR1 and Not1 in the pIRESpuro3 vector (Clontech Laboratories, Inc. CA, USA). A Kozak sequence (GCCACC) was introduced before the start codon ATG of both constructs. Chinese Hamster Ovary K1, CHO-FLP/IN, cells (Invitrogen Corporation, Paisley, UK) were transfected simultaneously using Lipofectamine 2000 reagent (Invitrogen Corporation, Paisley, UK). Geneticin 600 μg/mL (Invitrogen Corporation, Paisley, UK) and puromycin 3 μg/mL (BD Bioscience) were added to the cell culture medium 3 days after transfection. Two weeks after transfection, colonies had appeared and were manually picked and sorted to one cell per well in a 96-well plate. Cells were then tested for Kir3.1 and Kir3.4 expression using membrane potential assay, Western Blot and Immunocytochemistry. […] The cell line was re-sorted by flow cytometry and resulting clones were assayed electrophysiologically using IonWorks (Molecular Devices) and later validated on the Q-Patch (Sophion A/S).
The stable cell line was cultured in DMEM/F12 with Glutamax 1 (Invitrogen Corporation, Paisley, UK), supplemented with foetal bovine serum 10%, puromycin 3 μg/mL, hygromycin 300 μg/mL and geneticin 600 μg/mL (Invitrogen Corporation, Paisley, UK). Care was taken not to seed cells at too low density and cells were passaged at approximately 70-80% confluency. Cells used for patch-clamp experiments were prepared by washing using PBS (—Mg, —Ca^2+), 2 times, detached using Accutase (Sigma). For Q-Patch measurements, storage medium was prepared fresh by adding 1.25 mL of 1M Hepes (GibcoBRL) to 50 mL CHO-SFM II medium (GibcoBRL) and detached cells were diluted to 2 million cells/mL in this medium. Frozen (Cryopreserved) cells were used for Atomic Absorption Screening (AAS) and plated poly-D-lysine 384-well plates (Greiner) at a density of 11,000-13,000 cells/well, the day before assay.
The blocking effects of compounds on the human cardiac ion channel proteins hKir3.1/Kir3.4 were assessed in CHO-K1 cells stably expressing the channel proteins using Atomic Absorption Screening (AAS). Cells were washed and then loaded with 25 μL Rb-loading buffer for three hours at 37° C. After that, the cells were washed again and 25 μL of diluted compound was transferred to the cell plate, incubated for 5 min in RT, and then […] of Carbachol/high K+ (10 μM carbachol and 20 mM KCl final concentration) buffer added to stimulate the cells and open the Kir3.1/Kir3.4 channel. After 10 min stimulation, […] of the supernatant was transferred to a new microplate, 45 μL washing buffer added to the supernatant and the level of Rb in the supernatant was then measured using an Aurora ICR 8000. Compounds were studied at concentrations ranging from 0.003 to 67 μmol/L (dilutions by three, 10-pt CR) or from 0.037 to 27 μmol/L (dilutions by three, 7-pt CR).
Stock solutions of compounds were prepared in DMSO 10 mM and stored at RT. Buffers used for AAS contained (in mM): HEPES 20, NaCl 150, MgCl2 1.0, CaCl2 2.0 and NaH2PO4 0.8 and Glucose 10 (wash 1) or KCl 5 and Glucose 5 (wash 2) or KCl 5 (dilution buffer). The High K^+ channel opener buffer contained (in mM): HEPES 20, NaCl 130, MgCl2 1.0, CaCl2 2.0 and NaH2PO4 0.8 together with KCl 20. Solutions used for Q-Patch (extracellular) in mM: NaCl 145, KCl 4, CaCl2 2.0, MgCl2 1.0, HEPES 10 and glucose 10. The high K^+ extra cellular solution used for Q-Patch in mM: NaCl 96.7, KCl 50.7, CaCl2 2.0, MgCl2 1.0, HEPES 10 and glucose 10 while the intra cellular solution used was (in mM): KCl 120, CaCl2 5.374, MgCl2 1.75, EGTA 10, KOH 3.125, HEPES 10, Na2ATP 4.
Results are given as mean IC50 of >4 replicates (10-pt CR, AAS) or >3 replicates (7-pt CR, AAS). Some of the data in Table 1 are mean values of two or more runs. […]

[1] = 10-pt CR (0.003 to 67 μmol/L), AAS Rb efflux, CHO-K1 cells expressing hKir3.1/Kir3.4, mean of >4 replicates, read-out: IKACh IC50 10-pt CR, AAS
[2] = printed as IC50 >67 μM in the 10-pt CR assay or IC50 >27 μM in the 7-pt CR assay, assay format per compound not stated, read-out: IC50

| SMILES | pIC50 [1] | pIC50 [2] |
| --- | --- | --- |
| CCC[C@@H](CN1C[C@H](O)[C@H]1C)N(C)C(=O)c1ccc(F)cc1 (relative stereo) [Example 43.2, 4-Fluoro-N—((S)-1-((2R*,3S*)-3-hydroxy-2-methylazetidin-1-yl)pentan-2-yl)-N-methylbenzamide] | 5.04 | – |
| CCC[C@@H](CN1C[C@H](O)[C@H]1C)N(C)C(=O)c1ccc(F)c(F)c1 (relative stereo) [Example 43.3, 3,4-Difluoro-N—((S)-1-((2R*,3S*)-3-hydroxy-2-methylazetidin-1-yl)pentan-2-yl)-N-methylbenzamide] | 5.57 | – |
| CN(C(=O)c1ccc(F)c(F)c1)[C@H](CN1CC(O)C1)C1CCCC1 (single isomer, unassigned) [32.1, isomer 1] | 6.59 | – |
| CN(C(=O)c1ccc(F)c(F)c1)[C@H](CN1CC(O)C1)C1CCCC1 (single isomer, unassigned) [32.1, isomer 2] | 5.64 | – |
| COc1ccc(C(=O)N(C)C(CN2CC(O)C2)C2CCCC2)cc1 (single isomer, unassigned) [32.2, isomer 1] | 6.24 | – |
| COc1ccc(C(=O)N(C)C(CN2CC(O)C2)C2CCCC2)cc1 (single isomer, unassigned) [32.2, isomer 2] | 4.82 | – |
| CN(C(=O)c1ccc(Cl)cc1)C(CN1CC(O)C1)C1CCCC1 (single isomer, unassigned) [32.3, isomer 1] | 7.26 | – |
| CN(C(=O)c1ccc(Cl)cc1)C(CN1CC(O)C1)C1CCCC1 (single isomer, unassigned) [32.3, isomer 2] | 6.52 | – |
| Cc1cc(C(=O)N(C)C(CN2CC(O)C2)C2CCCC2)ccc1F (single isomer, unassigned) [32.4, isomer 1] | 7.47 | – |
| Cc1cc(C(=O)N(C)C(CN2CC(O)C2)C2CCCC2)ccc1F (single isomer, unassigned) [32.4, isomer 2] | 6.01 | – |
| CN(C(=O)c1ccc(C#N)cc1)C(CN1CC(O)C1)C1CCCC1 (single isomer, unassigned) [32.5, isomer 1] | 6.47 | – |
| CN(C(=O)c1ccc(C#N)cc1)C(CN1CC(O)C1)C1CCCC1 (single isomer, unassigned) [32.5, isomer 2] | 5.12 | – |
| CN(C(=O)c1ccc(F)c(Cl)c1)C(CN1CC(O)C1)C1CCCC1 (single isomer, unassigned) [32.7, isomer 1] | 7.12 | – |
| CN(C(=O)c1ccc(F)c(Cl)c1)C(CN1CC(O)C1)C1CCCC1 (single isomer, unassigned) [32.7, isomer 2] | 6.80 | – |
| CC(C)[C@@H](CCN1CCCC1)N(C)C(=O)c1ccccc1Cl [2-Chloro-N-methyl-N-[(1R)-2-methyl-1-(2-pyrrolidin-1-ylethyl)propyl]benzamide] | – | < 4.57 |
| CCC[C@@H](CN1C[C@@H](O)[C@@H]1C)N(C)C(=O)c1ccc(F)c(F)c1 [3,4-Difluoro-N-((S)-1-((2S,3R)-3-hydroxy-2-methylazetidin-1-yl)pentan-2-yl)-N-methylbenzamide] | – | < 4.57 |
| CC(C)[C@H](CN1CCCC1)N(C)C(=O)c1ccc(F)c(Cl)c1 [3-Chloro-4-fluoro-N-methyl-N-[(1R)-2-methyl-1-(pyrrolidin-1-ylmethyl)propyl]benzamide] | – | < 4.57 |
| CC(CN1CCCC1)N(C)C(=O)c1cccc(Cl)c1 (stereo not shown) [3-Chloro-N-methyl-N-(1-methyl-2-pyrrolidin-1-ylethyl)benzamide] | – | < 4.57 |
| CC(C)[C@@H](CN1CCCCC1)N(C)C(=O)c1cccc(C#N)c1 [3-Cyano-N-methyl-N-[(1S)-2-methyl-1-(piperidin-1-ylmethyl)propyl]benzamide] | – | < 4.57 |
| C[C@@H](CN1CCCC1)N(C)C(=O)c1ccc(Br)cc1 [4-Bromo-N-methyl-N-[(1S)-1-methyl-2-pyrrolidin-1-ylethyl]benzamide] | – | < 4.57 |

Further lines, results first:

| pIC50 [1] | pIC50 [2] | SMILES |
| --- | --- | --- |
| 5.96 | – | CN(C(=O)c1ccc(F)cc1Cl)C(CN1CC(O)C1)C1CCCC1 (single isomer, unassigned) [32.6, isomer 1] |
| 5.64 | – | CN(C(=O)c1ccc(F)cc1Cl)C(CN1CC(O)C1)C1CCCC1 (single isomer, unassigned) [32.6, isomer 2] |
| 5.03 | – | CC[C@H](C)C(CN1CC(O)C1)N(C)C(=O)c1ccc(F)c(F)c1 (stereo in doubt) [Example 29.1, 3,4-Difluoro-N-((2S,3S)-1-(3-hydroxyazetidin-1-yl)-3-methylpentan-2-yl)-N-methylbenzamide] |
| – | < 4.57 | CC(C)[C@@H](CN1CC[C@H](O)C1)N(C)C(=O)c1cc(F)cc(F)c1F [2,3,5-Trifluoro-N-[(1S)-1-{[(3S)-3-hydroxypyrrolidin-1-yl]methyl}-2-methylpropyl]-N-methylbenzamide] |
| – | < 4.57 | CC(C)[C@@H](CN1CCCCC1)N(C)C(=O)c1cc(F)cc(F)c1F [2,3,5-Trifluoro-N-methyl-N-[(1S)-2-methyl-1-(piperidin-1-ylmethyl)propyl]benzamide] |
| – | < 4.57 | CC(C)[C@@H](CN1CC[C@H](O)C1)N(C)C(=O)c1cc(C(F)(F)F)ccc1F [2-Fluoro-N-[(1S)-1-{[(3S)-3-hydroxypyrrolidin-1-yl]methyl}-2-methylpropyl]-N-methyl-5-(trifluoromethyl)benzamide] |
| – | < 4.57 | CC(C)[C@@H](CN1CC[C@H](O)C1)N(C)C(=O)c1cccc(C#N)c1 [3-Cyano-N-[(1S)-1-{[(3S)-3-hydroxypyrrolidin-1-yl]methyl}-2-methylpropyl]-N-methylbenzamide] |
| – | < 4.57 | CC(C)[C@H](CN1CCCC1)N(C)C(=O)c1cccc(C#N)c1 [3-Cyano-N-methyl-N-[(1R)-2-methyl-1-(pyrrolidin-1-ylmethyl)propyl]benzamide] |

— patent US8361998B2, “Compounds and their use as IKACh blockers” (AstraZeneca AB, priority 2010, dated 2013)
